Results from patent publication US20100061982A1, “3-SUBSTITUTED-1H-INDOLE, 3-SUBSTITUTED-1H-PYRROLO[2,3-B]PYRIDINE AND 3-SUBSTITUTED-1H-PYRROLO[3,2-B]PYRIDINE COMPOUNDS, THEIR USE AS MTOR KINASE AND PI3 KINASE INHIBITORS, AND THEIR SYNTHESES” (priority 2008, published 2010).
Like-named read-outs stand apart in the source and are kept apart here.

Tests used:
[1] = Microsome Stability (15 min), human; type: in vitro ADME; conditions: microsomes, Phase I (NADPH), read-out: Microsome Stability (15 min) T ½ Phase I human
[2] = Plasma Stability (37° C.), rat
[3] = Buffer Stability (37° C.)
[4] = Microsome Stability (15 min), nude mouse; type: in vitro ADME; conditions: microsomes, Phase I (NADPH), read-out: Microsome Stability (15 min) T ½ Phase I nude mouse
[5] = Microsome Stability (15 min), rat; type: in vitro ADME; conditions: microsomes, Phase I (NADPH), read-out: Microsome Stability (15 min) T ½ Phase I rat
[6] = target: PI3K alpha (Homo sapiens, UniProt P42336); assay: PI3K-alpha Fluorescence Polarization Assay; type: biochemical
[7] = PAMPA permeability pH 7.4
[8] = In vivo blood/plasma and tumor levels of prodrug and metabolites after 50 mg, kg po; conditions: 50 mg

Sequence of PI3K alpha (P42336 whole entry, species assumed): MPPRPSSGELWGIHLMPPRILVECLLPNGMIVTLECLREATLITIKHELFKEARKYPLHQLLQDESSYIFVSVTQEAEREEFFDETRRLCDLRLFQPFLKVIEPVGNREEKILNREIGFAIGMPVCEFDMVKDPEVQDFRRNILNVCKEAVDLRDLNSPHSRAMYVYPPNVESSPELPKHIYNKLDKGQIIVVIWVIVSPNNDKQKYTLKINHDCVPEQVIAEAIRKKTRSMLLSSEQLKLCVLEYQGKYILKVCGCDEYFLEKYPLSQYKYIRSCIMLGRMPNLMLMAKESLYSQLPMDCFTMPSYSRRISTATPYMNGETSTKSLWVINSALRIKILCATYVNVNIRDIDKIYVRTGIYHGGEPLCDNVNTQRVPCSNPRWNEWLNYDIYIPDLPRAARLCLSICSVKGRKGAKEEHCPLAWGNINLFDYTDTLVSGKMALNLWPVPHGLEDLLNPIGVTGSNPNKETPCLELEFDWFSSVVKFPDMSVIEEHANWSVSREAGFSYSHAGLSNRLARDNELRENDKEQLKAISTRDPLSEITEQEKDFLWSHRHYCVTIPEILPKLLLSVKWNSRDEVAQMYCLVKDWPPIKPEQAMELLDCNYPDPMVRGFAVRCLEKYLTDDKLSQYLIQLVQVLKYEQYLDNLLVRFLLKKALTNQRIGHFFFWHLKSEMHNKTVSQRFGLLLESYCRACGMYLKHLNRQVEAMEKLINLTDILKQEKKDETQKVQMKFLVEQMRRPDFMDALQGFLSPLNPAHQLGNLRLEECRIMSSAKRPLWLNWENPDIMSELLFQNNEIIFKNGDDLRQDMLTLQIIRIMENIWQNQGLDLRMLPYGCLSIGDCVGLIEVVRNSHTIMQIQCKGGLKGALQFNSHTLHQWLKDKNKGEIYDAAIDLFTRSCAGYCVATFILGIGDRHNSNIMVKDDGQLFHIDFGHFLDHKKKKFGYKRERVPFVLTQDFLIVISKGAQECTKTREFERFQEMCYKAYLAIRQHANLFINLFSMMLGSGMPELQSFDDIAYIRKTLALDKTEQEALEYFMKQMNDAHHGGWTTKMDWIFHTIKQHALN
Sequence of PI3K alpha (P27986 whole entry partner, species assumed): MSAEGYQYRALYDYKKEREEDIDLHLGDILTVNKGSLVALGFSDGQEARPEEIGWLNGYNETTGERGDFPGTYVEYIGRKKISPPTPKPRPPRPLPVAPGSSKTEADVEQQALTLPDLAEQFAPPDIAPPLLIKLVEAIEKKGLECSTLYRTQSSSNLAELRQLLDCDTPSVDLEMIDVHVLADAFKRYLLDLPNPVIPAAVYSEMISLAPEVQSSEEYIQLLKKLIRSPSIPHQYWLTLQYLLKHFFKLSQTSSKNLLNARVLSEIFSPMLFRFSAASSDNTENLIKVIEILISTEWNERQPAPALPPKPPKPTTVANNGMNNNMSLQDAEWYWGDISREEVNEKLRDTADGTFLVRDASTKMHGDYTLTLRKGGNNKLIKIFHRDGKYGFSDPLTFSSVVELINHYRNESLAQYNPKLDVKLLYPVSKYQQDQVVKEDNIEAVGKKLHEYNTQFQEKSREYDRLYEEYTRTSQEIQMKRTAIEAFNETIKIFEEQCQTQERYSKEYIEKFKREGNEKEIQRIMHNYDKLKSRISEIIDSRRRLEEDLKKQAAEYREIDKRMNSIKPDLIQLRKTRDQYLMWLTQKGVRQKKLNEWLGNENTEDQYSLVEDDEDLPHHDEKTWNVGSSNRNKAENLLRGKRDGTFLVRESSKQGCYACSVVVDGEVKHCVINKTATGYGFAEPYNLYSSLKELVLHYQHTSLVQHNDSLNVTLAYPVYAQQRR

| Compound | Plasma Stability (37° C.) % Remaining (3-3.5 hours) rat [2] [%] | Buffer Stability (37° C.) % Remaining (at 16-23 hours) SGF [3] [%] | Buffer Stability (37° C.) % Remaining (at 16-23 hours) SIF [3] [%] | Buffer Stability (37° C.) % Remaining (at 16-23 hours) pH 1 [3] [%] | Buffer Stability (37° C.) % Remaining (at 16-23 hours) pH 4.5 [3] [%] | Buffer Stability (37° C.) % Remaining (at 16-23 hours) pH 6.6 [3] [%] | Buffer Stability (37° C.) % Remaining (at 16-23 hours) pH 7.4 [3] [%] | Buffer Stability (37° C.) % Remaining (at 16-23 hours) pH 9 [3] [%] | half-life [5] [min] | PAMPA Pe [7] | IC50 ([6]; read-out: PI3K alpha Mean IC50) [µM] | half-life ([4]; nude, mouse) [min] | half-life [1] [min] | half-life [4] [min] | IC50 [6] [µM] | plasma prodrug concentration ([8]; 0.5 h) | plasma prodrug concentration ([8]; 2 h) | plasma prodrug concentration ([8]; 6 h (third value)) |
| --- | --- | --- | --- | --- | --- | --- | --- | --- | --- | --- | --- | --- | --- | --- | --- | --- | --- | --- |
| COc1ccc2[nH]c(-c3ccccc3)c(/C=C3\Oc4cc(OC(=O)N(C)C)ccc4C3=O)c2c1 [Example 18, (2Z)-2-[(5-methoxy-2-phenyl-1H-indol-3-yl)methylene]-3-oxo-2,3-dihydro-1-benzofuran-6-yl dimethylcarbamate] | 0 | 100 | 101 | 99 | 100 | 100 | 100 | 99 | 28 | Undetected | – | – | 13 | > 30 | 6.35 | – | – | – |
| CCOP(=O)(OCC)Oc1ccc2c(c1)O/C(=C\c1c(-c3ccccc3)[nH]c3ccc(OC)cc13)C2=O [Example 34, diethyl (2Z)-2-[(5-methoxy-2-phenyl-1H-indol-3-yl)methylene]-3-oxo-2,3-dihydro-1-benzofuran-6-yl phosphate] | – | – | – | – | – | – | – | – | 17 | 0 10e−6 cm/s | – | – | 26 | > 30 | 5.67 | 6 ng, ml | 2 ng, ml | bql |
| Cn1cc(/C=C2\Oc3cc(O)cc(O)c3C2=O)c2c(-c3ccccc3)cccc21 [(2Z)-4,6-dihydroxy-2-[(1-methyl-4-phenyl-1H-indol-3-yl)methylene]-1-benzofuran-3(2H)-one] | – | – | – | – | – | – | – | – | 21 | 0.04 10e−6 cm/s | – | – | – | – | – | – | – | – |
| COc1ccc2c(c1)c(/C=C1\Oc3cc(OC(=O)N(c4ccccc4)c4ccccc4)cc(OC(=O)N(c4ccccc4)c4ccccc4)c3C1=O)cn2CCCN(C)C [Example 21, (2Z)-2-({1-[3-(dimethylamino)propyl]-5-methoxy-1H-indol-3-yl}methylene)-3-oxo-2,3-dihydro-1-benzofuran-4,6-diyl bis(diphenylcarbamate)] | 107 | 99 | 45 | 118 | 103 | 91 | 98 | 87 | – | 0 10e−6 cm/s | – | – | – | > 30 | > 10 | – | – | – |
| COc1ccc2c(c1)c(/C=C1\Oc3cc(OC(=O)N(C(C)C)C(C)C)cc(OC(=O)N(C(C)C)C(C)C)c3C1=O)c(C)n2CCN1CCN(C)CC1 [Example 28, (2Z)-2-({5-methoxy-2-methyl-1-[2-(4-methylpiperazin-1-yl)ethyl]-1H-indol-3-yl}methylene)-3-oxo-2,3-dihydro-1-benzofuran-4,6-diyl bis(diisopropylcarbamate)] | – | – | – | – | – | – | – | – | – | 0.05 10e−6 cm/s | – | – | 8 | 24 | 9.5 | 1141, ng, ml | 940, ng, ml | 1106 ng, ml |
| CCOP(=O)(OCC)Oc1cc2c(c(OP(=O)(OCC)OCC)c1)C(=O)/C(=C/c1c(-c3ccccc3)[nH]c3ccc(OC)cc13)O2 [Example 32, tetraethyl (2Z)-2-[(5-methoxy-2-phenyl-1H-indol-3-yl)methylene]-3-oxo-2,3-dihydro-1-benzofuran-4,6-diyl bis(phosphate)] | – | – | – | – | – | – | – | – | 7 | 0 10e−6 cm/s | – | – | 2 | – | 11 | – | – | – |

Further lines, with some results ahead:

| Plasma Stability (37° C.) % Remaining (3-3.5 hours) rat [2] [%] | Buffer Stability (37° C.) % Remaining (at 16-23 hours) SGF [3] [%] | Buffer Stability (37° C.) % Remaining (at 16-23 hours) SIF [3] [%] | Buffer Stability (37° C.) % Remaining (at 16-23 hours) pH 1 [3] [%] | Buffer Stability (37° C.) % Remaining (at 16-23 hours) pH 4.5 [3] [%] | Buffer Stability (37° C.) % Remaining (at 16-23 hours) pH 6.6 [3] [%] | Buffer Stability (37° C.) % Remaining (at 16-23 hours) pH 7.4 [3] [%] | Buffer Stability (37° C.) % Remaining (at 16-23 hours) pH 9 [3] [%] | half-life [5] [min] | PAMPA Pe [7] | IC50 ([6]; read-out: PI3K alpha Mean IC50) [µM] | half-life ([4]; nude, mouse) [min] | Compound | half-life [1] [min] | half-life [4] [min] | IC50 [6] [µM] | plasma prodrug concentration ([8]; 0.5 h) | plasma prodrug concentration ([8]; 2 h) | plasma prodrug concentration ([8]; 6 h (third value)) |
| --- | --- | --- | --- | --- | --- | --- | --- | --- | --- | --- | --- | --- | --- | --- | --- | --- | --- | --- |
| – | – | – | – | – | – | – | – | – | 0.12 10e−6 cm/s | 0.472 | – | COc1ccc2[nH]c(-c3ccccc3)c(/C=C3\Oc4cc(OC(=O)c5ccccc5)cc(OC(=O)c5ccccc5)c4C3=O)c2c1 [Example 6, (2Z)-2-[(5-methoxy-2-phenyl-1H-indol-3-yl)methylene]-3-oxo-2,3-dihydro-1-benzofuran-4,6-diyl dibenzoate] | – | – | – | – | – | – |
| – | 99 | 64 | 96 | 73 | 75 | 4 | 0 | 10 | 0 10e−6 cm/s | 8.53 | – | COc1ccc2c(c1)c(/C=C1\Oc3cc(OC(=O)c4ccccc4)cc(OC(=O)c4ccccc4)c3C1=O)c(C)n2CCN1CCN(C)CC1 [Example 16, (2Z)-2-({5-methoxy-2-methyl-1-[2-(4-methylpiperazin-1-yl)ethyl]-1H-indol-3-yl}methylene)-3-oxo-2,3-dihydro-1-benzofuran-4,6-diyl dibenzoate] | > 30 | – | – | – | – | – |
| 10 | 106 | 35 | 104 | 74 | 60 | 54 | 0 | > 30 | 0 10e−6 cm/s | 0.181 | > 30 | COc1ccc2[nH]c(-c3ccccc3)c(/C=C3\Oc4cc(OC(=O)Oc5ccccc5)ccc4C3=O)c2c1 [Example 19, (2Z)-2-[(5-methoxy-2-phenyl-1H-indol-3-yl)methylene]-3-oxo-2,3-dihydro-1-benzofuran-6-yl phenyl carbonate] | 28 | – | – | – | – | – |
| 6 | 104 | 0 | 86 | 71 | 50 | 5 | 0 | 12 | 0 10e−6 cm/s | > 10 | – | COc1ccc2c(c1)c(/C=C1\Oc3cc(OC(=O)c4ccccc4)cc(OC(=O)c4ccccc4)c3C1=O)cn2CCCN(C)C [Example 24, (2Z)-2-({1-[3-(dimethylamino)propyl]-5-methoxy-1H-indol-3-yl}methylene)-3-oxo-2,3-dihydro-1-benzofuran-4,6-diyl dibenzoate] | 22 | – | – | – | – | – |
| 0 | 87 | 0 | 80 | 37 | 42 | 0 | 0 | – | 0 10e−6 cm/s | 0.013 | 4 | COC(=O)Oc1cc(OC(=O)OC)c2c(c1)O/C(=C\c1c(-c3ccccc3)[nH]c3ccc(OC)cc13)C2=O [Example 22, (2Z)-2-[(5-methoxy-2-phenyl-1H-indol-3-yl)methylene]-3-oxo-2,3-dihydro-1-benzofuran-4,6-diyl dimethyl biscarbonate] | 3 | – | – | – | – | – |
